Experiments:
PGE2 (prostaglandin E2) = assay: in vitro whole blood culture test system, zymosan activation: PGE2 formation; type: cell-based; details: human whole blood from 3 donors, 2 hours pre-incubation with 0.39, 1.56, 6.25, 25 and 100 µg tarenflurbil/ml, then zymosan
Procedure: (§1) In an in vitro whole blood culture test system with human whole blood from 3 donors in each case, pre-incubation was carried out for 2 hours with 0.39, 1.56, 6.25, 25 and 100 µg tarenflurbil/ml whole blood before activation with zymosan (agent for producing sterile inflammations) took place. In total the following 37 parameters were measured which allow a broad overview of the reaction of the leucocytes under inflammatory conditions and thus also of the effects of tarenflurbil in such an environment: • 1. Amphiregulin • 2. Brain-derived neurotrophic factor (BDNF) • 3. Interleukin-1 alpha (IL-1α) • 4. IL-1β • 5. IL-1 receptor antagonist (IL-1Ra) • 6. IL-2 • 7. IL-3 • 8. IL-4 • 9. IL-5 • 10. IL-6 • 11. IL-7 • 12. IL-8 • 13. IL-10 • 14. IL-12, p40 subunit (IL-12p40) • 15. IL-12p70 • 16. IL-15 • 17. IL-17 • 18. IL-18 • 19. IL-23 • 20. Epiregulin • 21. Eotaxin (Eot.) • 22. Factor VII (F. VII) • 23. Granulocyte-monocytes colony stimulating factor (GM-CSF) • 24. Interferon gamma (IFNγ) • 25. Intercellular adhesion molecule-1 (ICAM-1) • 26. Monocyte chemoattractand protein-1 (MCP-1) • 27. Migration inhibitory protein-1 alpha (MIP-1α) • 28. MIP-1ß • 29. Matrix-metalloproteinase-2 (MMP-2) • 30. MMP-3 • 31. MMP-9 • 32. Oncostatin M (OSM) • 33. Stem-cell factor (SCF) • 34. […] (TGFα) • 35. Tumor necrosis factor alpha (TNFα) • 36. TNFß • 37. Vascular endothelial growth factor (VEGF)

[1] = test system: BDNF (brain-derived neurotrophic factor); assay: in vitro whole blood culture test system, zymosan activation: BDNF release; type: cell-based; details: human whole blood from 3 donors, 0.39-100 µg tarenflurbil/ml
Procedure: In an in vitro whole blood culture test system with human whole blood from 3 donors in each case, pre-incubation was carried out for 2 hours with 0.39, 1.56, 6.25, 25 and 100 µg tarenflurbil/ml whole blood before activation with zymosan (agent for producing sterile inflammations) took place. In total the following 37 parameters were measured which allow a broad overview of the reaction of the leucocytes under inflammatory conditions and thus also of the effects of tarenflurbil in such an environment: • 1. […] Brain-derived neurotrophic factor (BDNF) • 3.

[2] = test system: CGRP (Calcitonin Gene-Related Peptide); details: isolated rat skin; Averbeck et al. 2003; cited from earlier work
UV erythema (sunburn) = assay: UV erythema test, twice the minimum erythema dose (Example 2); type: in vivo, human; details: four test subjects, skin of the back, topical spray 0.1, 0.25, 1 and 4% (w/w), visual score and spectroscopic colour measurement, 0-48 hours
Procedure: The clinical-pharmacological studies of the following Examples 2 to 4 were carried out on healthy adults as model for non-immunological inflammation. In a preliminary test on the skin of the back involving a group of four test subjects, the "minimum erythema dose" following irradiation with a standardized daylight irradiation apparatus ([…]) was established. In the main test 8 areas of the skin of the back of each subject were irradiated with twice the "minimum erythema dose" and then treated with tarenflurbil spray with 0.1, 0.25, 1 and 4% tarenflurbil (w/w) as well as the associated placebo formulations and the comparison preparations (triamcinolone acetonide 0.2% (w/w); mometasone furoate solution 0.1% (w/w)). […] The effect of the test preparation with the highest tarenflurbil concentration was much more marked than with the comparison solutions triamcinolone acetonide 0.2% (w/w) or mometasone furoate 0.1% (w/w).

Alzheimer's disease = details: extensive clinical Phase III studies; WO 2005/065069, Imbimbo 2009; cited from earlier work
[3] = in humans; Geisslinger et al., J Clin Pharmacol. 1996; cited from earlier work
[4] = in mice; Leipold et al., Chirality 2004; cited from earlier work
isolated rat skin = details: Pethö et al. 2001, the authors attributed the effect to S-flurbiprofen impurity; cited from earlier work
[5] = test system: TGFß (transforming growth factor ß); assay: in vitro whole blood culture test system, zymosan activation: TGFß release; type: cell-based; details: human whole blood from 3 donors, 0.39-100 µg tarenflurbil/ml
Procedure: as §1

LT-C4/E4/D4 = assay: in vitro whole blood culture test system, zymosan activation: leukotriene synthesis; type: cell-based; details: human whole blood, in allergy sufferers (Donor B), 0.39-100 µg tarenflurbil/ml, Figure 1
Procedure: In an in vitro whole blood culture test system with human whole blood from 3 donors in each case, pre-incubation was carried out for 2 hours with 0.39, 1.56, 6.25, 25 and 100 µg tarenflurbil/ml whole blood before activation with zymosan (agent for producing sterile inflammations) took place. […] A group determination of LT-C4/E4/D4 was carried out.

| Structure (SMILES) | PGE2 (prostaglandin E2) formation (PGE2 (prostaglandin E2)) | BDNF (brain-derived neurotrophic factor) release [1] | inhibition of the release of CGRP [2] | degree of erythema (UV erythema) (UV erythema (sunburn)) | efficacy against Alzheimer's disease (Alzheimer's disease) | conversion to S-flurbiprofen [3] | bioinversion into S-flurbiprofen [4] | effect on bradykinin-induced nociceptor sensitization to heat (isolated rat skin) | TGFß (transforming growth factor ß) release [5] | leukotriene synthesis (LT-C4/E4/D4) (LT-C4/E4/D4) |
| --- | --- | --- | --- | --- | --- | --- | --- | --- | --- | --- |
| C[C@@H](C(=O)O)c1ccc(-c2ccccc2)c(F)c1 [tarenflurbil, (R)-2-(3-fluoro-4-phenylphenyl)propionic acid] | dose-dependent reduction | dose-dependent reduction | ineffective | dose-dependent reduction | ineffective | not to be converted to S-flurbiprofen | considerable bioinversion | effective | dose-dependent reduction | dose-dependent reduction |
| C[C@H](C(=O)O)c1ccc(-c2ccccc2)c(F)c1 [S-flurbiprofen] | – | – | effective | – | – | – | – | – | – | – |
